Results as given in patent publication US20230233569A1 (Revolution Medicines, Inc., priority 2020, published 2023).
Like-named read-outs stand apart in the source and are kept apart here.

Experiments:
[1] = tested on: K-Ras G12C (NCI-H358 cells); experiment: Potency assay: pERK (AlphaLISA SureFire or In-Cell Western); assay type: cell-based; details: Homo sapiens, NCI-H358; H358 KRAS G12C; read-out: pERK EC50
Protocol: (§1) The purpose of this assay is to measure the ability of test compounds to inhibit K-Ras in cells. […] This procedure measures a decrease in cellular pERK in response to test compounds.
(§2) NCI-H358 cells were grown and maintained using media and procedures recommended by the ATCC. On the day prior to compound addition, cells were plated in 384-well cell culture plates (40 μl/well) and grown overnight in a 37° C., 5% CO2 incubator. Test compounds were prepared in 10, 3-fold dilutions in DMSO, with a high concentration of 10 mM. On the day of assay, 40 nL of test compound was added to each well of cell culture plate using an Echo550 liquid handler (LabCyte®). Concentrations of test compound were tested in duplicate. After compound addition, cells were incubated 4 hours at 37° C., 5% CO2. Following incubation, culture medium was removed and cells were washed once with phosphate buffered saline.
(§3) In some experiments, cellular pERK level was determined using the AlphaLISA SureFire Ultra p-ERK1/2 Assay Kit (PerkinElmer). Cells were lysed in 25 μL lysis buffer, with shaking at 600 RPM at room temperature. […] After a 2-hour incubation in the dark, 5 μL donor mix was added, plate was sealed, and incubated 2 hours at room temperature. Signal was read on an Envision plate reader (PerkinElmer) using standard AlphaLISA settings. Analysis of raw data was carried out in Excel (Microsoft) and Prism (GraphPad). Signal was plotted vs. the decadal logarithm of compound concentration, and IC50 was determined by fitting a 4-parameter sigmoidal concentration response model.
In other experiments, cellular pERK was determined by In-Cell Western. […] Fixed cells were washed 4 times for 5 minutes with TBS containing 0.1% Triton X-100 (TBST) and then blocked with 100 μL Odyssey blocking buffer (LI-COR) for 60 minutes at room temperature. […] Cells were washed 4 times for 5 minutes with TBST. Secondary antibody (IR-800CW rabbit, LI-COR, diluted 1:800) and DNA stain DRAQ5 (LI-COR, diluted 1:2000) were added and incubated 1-2 hours at room temperature. Cells were washed 4 times for 5 minutes with TBST. Plates were scanned on a LI-COR Odyssey CLx Imager. Analysis of raw data was carried out in Excel (Microsoft) and Prism (GraphPad). Signal was plotted vs. the decadal logarithm of compound concentration, and IC50 was determined by fitting a 4-parameter sigmoidal concentration response model.
as §1
as §2, with “mM. On day of” for “mM. On the day of”, “assay, 40 nl of test” for “assay, 40 nL of test”
as §3, with “μl” for “μL”, “sealed” for “sealed,”

KRAS G12C = KRAS G12C (Homo sapiens, UniProt P01116+P62937, G12C); experiment: Ras-Raf disruption / FRET / MOA assay (BRAF RBD); assay type: biochemical; details: with Cyclophilin A
KRAS G12C, sequence (P01116 1-169 isoform P01116-2 G12C limits assumed): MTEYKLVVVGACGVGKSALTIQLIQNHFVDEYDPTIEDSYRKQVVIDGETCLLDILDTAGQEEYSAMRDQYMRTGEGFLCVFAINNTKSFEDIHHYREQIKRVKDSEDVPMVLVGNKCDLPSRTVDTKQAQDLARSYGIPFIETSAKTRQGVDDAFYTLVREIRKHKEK
KRAS G12C, sequence (P62937 whole entry): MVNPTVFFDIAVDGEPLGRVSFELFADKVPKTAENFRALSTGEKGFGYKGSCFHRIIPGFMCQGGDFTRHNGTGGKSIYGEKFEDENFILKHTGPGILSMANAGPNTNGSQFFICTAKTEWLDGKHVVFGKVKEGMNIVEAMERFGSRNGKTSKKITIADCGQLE
Summary of the method: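 TR-FRET read-out after 1.5 h with anti-His Eu-W1024 (10 nM) and anti-GST APC (50 nM), following 3 h at 25 °C of compound (top 30 μM, 3-fold, 10 points) with 25 μM Cyclophilin A, 12.5 nM GMPPNP-loaded K-Ras G12C and 50 nM BRAF RBD; IC50 reported.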

KRAS G13C = KRAS G13C (Homo sapiens, UniProt P01116+P62937, G13C); experiment: Ras-Raf disruption / FRET / MOA assay (BRAF RBD); assay type: biochemical; details: with Cyclophilin A
KRAS G13C, sequence (P01116 1-169 isoform P01116-2 G13C limits assumed): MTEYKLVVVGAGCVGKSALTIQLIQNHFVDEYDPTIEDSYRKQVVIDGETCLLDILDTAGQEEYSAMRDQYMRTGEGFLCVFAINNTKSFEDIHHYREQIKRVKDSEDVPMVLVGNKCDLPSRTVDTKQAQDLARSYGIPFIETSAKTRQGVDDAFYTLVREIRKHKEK
KRAS G13C, sequence (P62937 whole entry): as the sequence (P62937 whole entry) above
Summary of the method: (§4)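 Compound-induced Ras–Cyclophilin A ternary complex disrupting BRAF RBD binding, read as IC50 from reduced TR-FRET ratio relative to DMSO. Final: Ras-GMPPNP 12.5 nM, BRAF RBD 50 nM, Cyclophilin A 25 μM, top compound 30 μM (3-fold, 10 points); 3 h at 25 °C, then 1.5 h with detection antibodies.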

NRAS WT = NRAS WT (Homo sapiens, UniProt P01111+P62937); experiment: Ras-Raf disruption / FRET / MOA assay (BRAF RBD); assay type: biochemical
NRAS WT, sequence (P01111 whole entry): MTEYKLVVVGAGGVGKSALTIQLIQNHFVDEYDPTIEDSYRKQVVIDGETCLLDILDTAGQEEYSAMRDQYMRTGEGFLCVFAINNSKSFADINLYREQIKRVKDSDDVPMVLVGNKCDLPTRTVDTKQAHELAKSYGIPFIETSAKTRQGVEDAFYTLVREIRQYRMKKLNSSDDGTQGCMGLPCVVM
NRAS WT, sequence (P62937 whole entry): as the sequence (P62937 whole entry) above
Summary of the method: as §4

NRAS Q61R = NRAS Q61R (Homo sapiens, UniProt P01111+P62937, Q61R); experiment: Ras-Raf disruption / FRET / MOA assay (BRAF RBD); assay type: biochemical
NRAS Q61R, sequence (P01111 whole entry Q61R): as the sequence (P01111 whole entry) above, with Q61R counted along it
NRAS Q61R, sequence (P62937 whole entry): as the sequence (P62937 whole entry) above
Summary of the method: as §4

KRAS WT = KRAS WT (Homo sapiens, UniProt P01116+P62937); experiment: Ras-Raf disruption / FRET / MOA assay (BRAF RBD); assay type: biochemical; details: with Cyclophilin A
KRAS WT, sequence (P01116 1-169 isoform P01116-2 limits assumed): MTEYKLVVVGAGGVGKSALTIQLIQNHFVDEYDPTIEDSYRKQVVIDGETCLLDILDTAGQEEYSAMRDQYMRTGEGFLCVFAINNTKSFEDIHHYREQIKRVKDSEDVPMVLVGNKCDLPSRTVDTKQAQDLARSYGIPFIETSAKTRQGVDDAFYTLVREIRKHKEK
KRAS WT, sequence (P62937 whole entry): as the sequence (P62937 whole entry) above
Summary of the method: as §4

KRAS Q61H = KRAS Q61H (Homo sapiens, UniProt P01116+P62937, Q61H); experiment: Ras-Raf disruption / FRET / MOA assay (BRAF RBD); assay type: biochemical
KRAS Q61H, sequence (P01116 1-169 isoform P01116-2 Q61H limits assumed): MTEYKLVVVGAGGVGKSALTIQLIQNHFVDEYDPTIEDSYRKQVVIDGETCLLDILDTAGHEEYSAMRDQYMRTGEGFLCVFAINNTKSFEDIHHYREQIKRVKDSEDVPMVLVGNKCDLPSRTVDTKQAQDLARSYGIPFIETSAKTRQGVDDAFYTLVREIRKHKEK
KRAS Q61H, sequence (P62937 whole entry): as the sequence (P62937 whole entry) above
Summary of the method: as §4

KRAS G12D = KRAS G12D (Homo sapiens, UniProt P01116+P62937, G12D); experiment: Ras-Raf disruption / FRET / MOA assay (BRAF RBD); assay type: biochemical; details: with Cyclophilin A
KRAS G12D, sequence (P01116 1-169 isoform P01116-2 G12D limits assumed): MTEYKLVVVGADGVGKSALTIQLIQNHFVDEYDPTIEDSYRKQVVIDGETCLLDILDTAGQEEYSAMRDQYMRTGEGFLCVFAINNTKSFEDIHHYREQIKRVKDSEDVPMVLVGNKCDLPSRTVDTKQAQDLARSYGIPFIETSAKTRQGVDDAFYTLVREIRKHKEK
KRAS G12D, sequence (P62937 whole entry): as the sequence (P62937 whole entry) above
Summary of the method: as §4

KRAS G13D = KRAS G13D (Homo sapiens, UniProt P01116+P62937, G13D); experiment: Ras-Raf disruption / FRET / MOA assay (BRAF RBD); assay type: biochemical; details: with Cyclophilin A
KRAS G13D, sequence (P01116 1-169 isoform P01116-2 G13D limits assumed): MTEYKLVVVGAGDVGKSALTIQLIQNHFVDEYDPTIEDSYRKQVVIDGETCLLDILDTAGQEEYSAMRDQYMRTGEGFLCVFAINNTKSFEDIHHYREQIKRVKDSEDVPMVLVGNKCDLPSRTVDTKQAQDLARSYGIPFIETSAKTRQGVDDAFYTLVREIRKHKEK
KRAS G13D, sequence (P62937 whole entry): as the sequence (P62937 whole entry) above
Summary of the method: as §4

NRAS G12C = NRAS G12C (Homo sapiens, UniProt P01111+P62937, G12C); experiment: Ras-Raf disruption / FRET / MOA assay (BRAF RBD); assay type: biochemical
NRAS G12C, sequence (P01111 whole entry G12C): as the sequence (P01111 whole entry) above, with G12C counted along it
NRAS G12C, sequence (P62937 whole entry): as the sequence (P62937 whole entry) above
Summary of the method: as §4

KRAS G12S = KRAS G12S (Homo sapiens, UniProt P01116+P62937, G12S); experiment: Ras-Raf disruption / FRET / MOA assay (BRAF RBD); assay type: biochemical; details: with Cyclophilin A
KRAS G12S, sequence (P01116 1-169 isoform P01116-2 G12S limits assumed): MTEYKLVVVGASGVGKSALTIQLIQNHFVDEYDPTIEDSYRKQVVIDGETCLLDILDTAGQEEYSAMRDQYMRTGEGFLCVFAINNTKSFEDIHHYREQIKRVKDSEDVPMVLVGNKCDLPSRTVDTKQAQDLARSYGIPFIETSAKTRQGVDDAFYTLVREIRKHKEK
KRAS G12S, sequence (P62937 whole entry): as the sequence (P62937 whole entry) above
Summary of the method: as §4

KRAS G12V = KRAS G12V (Homo sapiens, UniProt P01116+P62937, G12V); experiment: Ras-Raf disruption / FRET / MOA assay (BRAF RBD); assay type: biochemical; details: with Cyclophilin A
KRAS G12V, sequence (P01116 1-169 isoform P01116-2 G12V limits assumed): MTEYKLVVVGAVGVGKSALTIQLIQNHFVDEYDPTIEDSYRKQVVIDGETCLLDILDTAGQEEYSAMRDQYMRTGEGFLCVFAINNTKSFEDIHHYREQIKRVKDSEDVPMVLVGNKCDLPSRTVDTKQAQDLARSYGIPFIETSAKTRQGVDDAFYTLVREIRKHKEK
KRAS G12V, sequence (P62937 whole entry): as the sequence (P62937 whole entry) above
Summary of the method: as §4

NRAS Q61K = NRAS Q61K (Homo sapiens, UniProt P01111+P62937, Q61K); experiment: Ras-Raf disruption / FRET / MOA assay (BRAF RBD); assay type: biochemical
NRAS Q61K, sequence (P01111 whole entry Q61K): as the sequence (P01111 whole entry) above, with Q61K counted along it
NRAS Q61K, sequence (P62937 whole entry): as the sequence (P62937 whole entry) above
Summary of the method: as §4

[2] = Ras-Raf disruption, read-out: KRAS G12C FRET data IC50
[3] = Ras-Raf disruption, read-out: KRAS G13C FRET data IC50
[4] = NRAS WT, read-out: NRAS WT FRET data IC50
[5] = NRAS Q61R, read-out: NRAS Q61R FRET data IC50
[6] = Ras-Raf disruption, read-out: KRAS WT FRET data IC50
[7] = KRAS Q61H, read-out: KRAS Q61H FRET data IC50
[8] = Ras-Raf disruption, read-out: KRAS G12D FRET data IC50
[9] = Ras-Raf disruption, read-out: KRAS G13D FRET data IC50
[10] = NRAS G12C, read-out: NRAS G12C FRET data IC50
[11] = Ras-Raf disruption, read-out: KRAS G12S FRET data IC50
[12] = Ras-Raf disruption, read-out: KRAS G12V FRET data IC50
[13] = NRAS Q61K, read-out: NRAS Q61K FRET data IC50

Row | Compound | IC50 (KRAS G12C; [2]) [nM] | IC50 (KRAS G13C; [3]) [nM] | IC50 (NRAS WT; [4]) [nM] | IC50 (NRAS Q61R; [5]) [nM] | IC50 (KRAS WT; [6]) [nM] | IC50 (KRAS Q61H; [7]) [nM] | IC50 (KRAS G12D; [8]) [nM] | IC50 (KRAS G13D; [9]) [nM] | IC50 (NRAS G12C; [10]) [nM] | IC50 (KRAS G12S; [11]) [nM] | IC50 (KRAS G12V; [12]) [nM] | IC50 (NRAS Q61K; [13]) [nM] | further results
1 | C=CC(=O)N1CC[C@H](C(=O)N(C)[C@H](C(=O)N[C@H]2Cc3cc(O)cc(c3)-c3ccc4c(c3)c(c(-c3cnn(C)c3[C@H](C)OC)n4CC)CC(C)(C)COC(=O)[C@@H]3CCCN(N3)C2=O)C(C)C)C1 [Example A166] |  |  |  |  |  |  |  |  |  |  |  |  | EC50 [1]: < 5000 nM
2 | CCn1c(-c2cccnc2[C@H](C)OC)c2c3cc(ccc31)-c1csc(n1)C[C@H](NC(=O)[C@H](C(C)C)N(C)C(=O)N1CCN(C(=O)[C@H]3CN3)[C@H](C)C1)C(=O)N1CCC[C@H](N1)C(=O)OCC(C)(C)C2 [Example 299] | 10 to 100 | 100 to 1000 | 100 to 1000 | 100 to 1000 | 100 to 1000 | 10 to 100 | 100 to 1000 | 100 to 1000 | 10 to 100 | 100 to 1000 | 100 to 1000 | 10 to 100 | 
3 | CCn1c(-c2cccnc2[C@H](C)OC)c2c3cc(ccc31)-c1cc(O)cc(c1)C[C@H](NC(=O)[C@H](C1CCCC1)N(C)C(=O)CN(C)C(=O)[C@@H]1N[C@@H]1C1(C#N)CC1)C(=O)N1CCC[C@H](N1)C(=O)OCC(C)(C)C2 (single isomer, unassigned) [Example 308] |  |  |  |  |  |  |  |  |  |  |  |  | IC50 (KRAS G12C; KRAS G12C FRET data IC50, Ras-Raf disruption): 10 to 100 nM; IC50 (KRAS G13C; KRAS G13C FRET data IC50, Ras-Raf disruption): 10 to 100 nM; IC50 (NRAS WT): 10 to 100 nM; IC50 (NRAS Q61R): 100 to 1000 nM; IC50 (KRAS WT; KRAS WT FRET data IC50, Ras-Raf disruption): 10 to 100 nM; IC50 (KRAS Q61H): 10 to 100 nM; IC50 (KRAS G12D; KRAS G12D FRET data IC50, Ras-Raf disruption): 100 to 1000 nM; IC50 (KRAS G13D; KRAS G13D FRET data IC50, Ras-Raf disruption): 100 to 1000 nM; IC50 (NRAS G12C; NRAS G12C FRET data IC50, NRAS G12C): 10 to 100 nM; IC50 (KRAS G12S; KRAS G12S FRET data IC50, Ras-Raf disruption): 10 to 100 nM; IC50 (KRAS G12V; KRAS G12V FRET data IC50, Ras-Raf disruption): 100 to 1000 nM; IC50 (NRAS Q61K): 100 to 1000 nM
4 | CCn1c(-c2cccnc2[C@H](C)OC)c2c3cc(ccc31)-c1cc(O)cc(c1)C[C@H](NC(=O)[C@H](C(C)C)N(C)C(=O)[C@H]1C[C@@H]3N[C@@H]3C1)C(=O)N1CCC[C@H](N1)C(=O)OCC(C)(C)C2 (atropisomer, axis not shown) [Example 286] | 100 to 1000 | 10 to 100 | 100 to 1000 | 100 to 1000 | 100 to 1000 | 10 to 100 | 100 to 1000 | 10 to 100 | 100 to 1000 | 100 to 1000 | 100 to 1000 | 100 to 1000 | 
5 | CCn1c(-c2cccnc2[C@H](C)OC)c2c3cc(ccc31)-c1cc(O)cc(c1)C[C@H](NC(=O)[C@H](C(C)C)N(C)C(=O)N1C[C@@H]3[C@H]1CCN3C(=O)[C@H]1CN1)C(=O)N1CCC[C@H](N1)C(=O)OCC(C)(C)C2 (atropisomer, axis not shown) [Example 250] | 10 to 100 | 100 to 1000 | 100 to 1000 | 1000 to 10000 | 100 to 1000 | 100 to 1000 | 1000 to 10000 | 1000 to 10000 | 100 to 1000 | 100 to 1000 | 100 to 1000 | 1000 to 10000 | 
6 | CCn1c(-c2cccnc2[C@H](C)OC)c2c3cc(ccc31)-c1csc(n1)C[C@H](NC(=O)[C@H](C(C)C)N(C)C(=O)N1CCCN(C(=O)[C@H]3CN3)CC1)C(=O)N1CCC[C@H](N1)C(=O)OCC(C)(C)C2 (atropisomer, axis not shown) [Example 222] | 10 to 100 | 100 to 1000 | 10 to 100 | 10 to 100 | 10 to 100 | 10 to 100 | 100 to 1000 | 100 to 1000 | 10 to 100 | 10 to 100 | 100 to 1000 | 10 to 100 | 
7 | CCn1c(-c2cccnc2[C@H](C)OC)c2c3cc(ccc31)-c1cc(O)cc(c1)C[C@H](NC(=O)[C@H](C(C)C)N(C)C(=O)[C@H]1CCN(C(=O)[C@H]3CN3)[C@H]1C)C(=O)N1CCC[C@H](N1)C(=O)OCC(C)(C)C2 (atropisomer, axis not shown) [Example 206] | 10 to 100 | 100 to 1000 | 100 to 1000 | 1000 to 10000 | 100 to 1000 | 100 to 1000 | 1000 to 10000 | 100 to 1000 | 10 to 100 | 100 to 1000 | 100 to 1000 | 1000 to 10000 | 
8 | CCn1c(-c2cccnc2[C@H](C)OC)c2c3cc(ccc31)-c1csc(n1)C[C@H](NC(=O)[C@H](C(C)C)N(C)C(=O)N1CC[C@@H](N(C)C(=O)[C@H]3CN3)C1)C(=O)N1CCC[C@H](N1)C(=O)OCC(C)(C)C2 (atropisomer, axis not shown) [Example 226] | 100 to 1000 | 100 to 1000 | 100 to 1000 | 100 to 1000 | 100 to 1000 | 100 to 1000 | 1000 to 10000 | 100 to 1000 | 100 to 1000 | 100 to 1000 | 100 to 1000 | 100 to 1000 | 
